Drawing on EP4745134A1 (Jiangsu Yahong Meditech Co., Ltd., priority 2023, dated 2025), this text covers IC50 for 27 molecules.

pIC50: −log10 of the molar value.

The target of this experiment is PRMT5-MTA (Homo sapiens, UniProt O14744). Briefly: Enzymatic inhibitory activity against PRMT5-MTA (AlphaScreen). It is filed as biochemical. The following applies: read-out: IC50. How it is done: The AlphaScreen method was used to detect the enzymatic inhibitory activity of the compounds against PRMT5-MTA. 1 x Methyltransferase assay buffer IV (signalchem) was prepared as a solution for diluting each component for the enzymatic reaction. PRMT5/[…] protein of a final concentration of 1 nM, […] (sigma) of a final concentration of 1 uM and S-(5'-adenosine)-L-methionine chloride dihydrochloride (sigma) of a final concentration of 2.5 uM were mixed, then incubated for 30 minutes at room temperature, and transferred to an OptiPlate-384 well plate (PerkinElmer) at a volume of 6 uL per well, for which no PRMT5/[…] protein was added to the control wells. The test compound was 3-fold serially diluted into 10 concentrations, starting from a concentration of 1000 nM, and the series of diluted compounds were added to all wells except the control wells in the well plate using Tecan D300e. The well plate was subjected to centrifugation for 1 minute at 1000 rpm in a centrifuge, and then incubated for 15 minutes at 23°C. Histone H4 substrate of a final concentration of 5 nM was added to the well plate at 4 uL per well, centrifuged for 1 minute at 1000 rpm in a centrifuge, then placed in an incubator at 23°C and reacted for 45 minutes. Anti-histone H4 (symmetrical dimethyl R3) antibody (Abcam) was incubated with 50 ug/mL of AlphaScreen Protein A Acceptor beads (PerkinElmer) for 10 minutes at room temperature beforehand, and then added to the well plate at a volume of 10 uL per well. The mixture was reacted for 1 hour at room temperature. 50 Ug/mL of AlphaScreen Streptavidin Donor beads (PerkinElmer) was added at 10 uL per well, and reacted for 1 hour at room temperature. The signal values were detected for the well plate through the Alpha method using an Envision multifunctional microplate-reader, and the IC50 values for inhibition of the compounds on PRMT5/MET50 enzyme activity were calculated in Xlfit 5.0 software. Table 1. IC50 values for inhibition of the compounds on PRMT5+MTA enzyme activity
Sequence of PRMT5-MTA (O14744 whole entry): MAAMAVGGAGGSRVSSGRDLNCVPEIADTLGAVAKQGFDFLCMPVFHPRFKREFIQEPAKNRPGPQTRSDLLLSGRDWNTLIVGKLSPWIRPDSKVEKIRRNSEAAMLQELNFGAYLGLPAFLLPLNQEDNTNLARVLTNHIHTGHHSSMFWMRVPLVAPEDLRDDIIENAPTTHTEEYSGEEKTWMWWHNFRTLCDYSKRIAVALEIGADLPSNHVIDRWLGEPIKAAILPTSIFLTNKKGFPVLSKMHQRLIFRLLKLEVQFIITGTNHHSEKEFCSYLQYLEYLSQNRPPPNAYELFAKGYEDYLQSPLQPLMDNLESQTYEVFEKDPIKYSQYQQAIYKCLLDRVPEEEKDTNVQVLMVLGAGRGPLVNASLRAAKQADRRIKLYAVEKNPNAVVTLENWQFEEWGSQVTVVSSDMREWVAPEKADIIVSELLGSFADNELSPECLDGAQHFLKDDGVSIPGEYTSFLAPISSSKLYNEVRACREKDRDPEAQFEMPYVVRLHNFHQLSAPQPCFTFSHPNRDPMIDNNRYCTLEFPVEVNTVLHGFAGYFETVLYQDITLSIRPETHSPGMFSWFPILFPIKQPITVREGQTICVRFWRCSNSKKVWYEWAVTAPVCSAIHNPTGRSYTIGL
Sequence of PRMT5-MTA (Q9BQA1 whole entry partner): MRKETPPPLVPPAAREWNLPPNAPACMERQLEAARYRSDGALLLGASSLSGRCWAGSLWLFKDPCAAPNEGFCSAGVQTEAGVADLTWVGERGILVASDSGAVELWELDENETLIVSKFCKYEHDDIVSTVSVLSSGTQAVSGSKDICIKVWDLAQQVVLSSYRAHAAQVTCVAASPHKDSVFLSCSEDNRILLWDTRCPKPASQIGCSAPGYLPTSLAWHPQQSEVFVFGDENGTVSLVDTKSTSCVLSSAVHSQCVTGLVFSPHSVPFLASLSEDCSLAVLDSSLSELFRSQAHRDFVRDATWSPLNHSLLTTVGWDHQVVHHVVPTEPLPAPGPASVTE
On the technique in general: Alpha assays give light when donor and acceptor beads are brought close together.
Broadly, the pIC50 is the IC50 on a negative log10 scale, so that one unit is a factor of ten. Regarding `Cc1cc2cc(C(=O)N(Cc3ncc(Br)cn3)N(C)c3ncccc3F)ccc2nc1N` [Example 89, 2-amino-N-((5-bromopyrimidin-2-yl)methyl)-N'-(3-fluoropyridin-2-yl)-N',3-dimet hylquinoline-6-carbohydrazide], the pIC50 is 8.70.

Take `Cc1cc2nc(N)c3cnn(C)c3c2cc1C(=O)N1CC(C)CN1c1ccc(C(F)(F)F)cn1` (stereo not drawn) [Example 389, (4-amino-1,7-dimethyl-1H-pyrazolo[4,3-c]quinolin-8-yl)(4-methyl-2-(5-(trifluoromethyl)pyridin-2-yl)pyrazolidin-1-yl)met hanone]: the pIC50 is 8.20. On to `Cc1cc2cc(C(=O)N(Cc3ccc(C(C)(C)O)cn3)N(C)c3ncccn3)ccc2nc1N` [Example 290, 2-amino-N-((5-(2-hydroxyprop-2-yl)pyridin-2-yl)methyl)-N',3-dimethyl-N'-(pyrimidin-2-yl)quinoline-6-carbohydrazide], for which the pIC50 is 8.43.

Regarding `Cc1cc2cc(C(=O)N(Cc3cnc(Br)cn3)N(C)c3ncccn3)ccc2nc1N` [Example 282, 2-amino-N-((5-bromopyrazin-2-yl)methyl)-N',3-dimethyl-N'-(pyrimidin-2-yl)quinoline-6-carbohydrazide], the pIC50 is 8.35.

In the case of `Cc1cc2cc(C(=O)N(Cc3ccc(C(F)(F)F)cn3)N(C)c3ncc(C(F)(F)F)cn3)ccc2nc1N` [Example 77, 2-amino-N',3-dimethyl-N-((5-(trifluoromethyl)pyridin-2-yl)methyl)-N'-(5-(trifluor omethyl)pyrimidin-2-yl)quinoline-6-carbohydrazide], the pIC50 is 8.96. As for `CCc1cc2nc(N)c3cnn(C)c3c2cc1C(=O)N1CCCN1c1ccc(C(F)(F)F)cn1` [Example 496, (4-amino-7-ethyl-1-methyl-1H-pyrazolo[4,3-c]quinolin-8-yl)(2-(5-(trifluoromethyl)pyridin-2-yl)pyrazolidin-1-yl)methanone], the pIC50 was 8.47. With `Cn1ncc2c(N)nc3ccc(C(=O)N4CCCN4c4ccc(C(F)(F)F)cn4)cc3c21` [Example 339, (4-amino-1-methyl-1H-pyrazolo[4,3-c]quinolin-8-yl)(2-(5-(trifluoromethyl)pyridin-2-yl)pyrazolidin-1-yl)methanone] the figure was 8.34; with `Cc1cc2cc(C(=O)N3CC(C)CN3c3ncccc3F)c(F)cc2nc1N` (stereo not drawn) [Example 333, (2-amino-7-fluoro-3-methylquinolin-6-yl)(2-(3-fluoropyridin-2-yl)-4-methylpyrazolidin-1-yl)methanone], 8.11; with `Cc1cc2nc(N)c3c(cnn3C)c2cc1C(=O)N1CC(C)CN1c1ncccc1F` (stereo not drawn) [Example 504, (4-amino-3,7-dimethyl-3H-pyrazolo[3,4-c]quinolin-8-yl)(2-(3-fluoropyridin-2-yl)-4-methylpyrazolidin-1-yl)methanone], 8.07. To `Cc1cc2cc(C(=O)N(Cc3ccc(-c4cnn(C(F)(F)F)c4)cn3)Nc3ncccn3)ccc2nc1N` [Example 249, 2-amino-3-methyl-N'-(pyrimidin-2-yl)-N-((5-(1-(trifluoromethyl)-1H-pyrazol-4-yl)pyridin-2-yl)methyl)quinoline-6-carbohy drazide] belongs 7.40; to `Cc1cc2cc(C(=O)N(Cc3ccc(C(F)(F)F)cn3)N(CC(F)(F)F)c3ncccn3)ccc2nc1N` [Example 98, 2-amino-3-methyl-N'-(pyrimidin-2-yl)-N' -(2,2,2-trifluoroethyl)-N-((5-(trifluoromethyl)pyridin-2-yl)methyl)quinoline-6-carbohydrazide], 7.76.

For `Cc1cc2cc(C(=O)N(Cc3ccc(C(F)(F)F)cn3)n3c(=O)n(C)c4cccnc43)ccc2nc1N` [Example 118, 2-amino-3-methyl-N-(1-methyl-2-oxo-1,2-dihydro-3H-imidazo[4,5-b]pyridin-3-yl)-N-((5-(trifluoromethyl)pyridin-2-yl)methyl)quinoline-6-carboxamide], the negative logarithm of the IC50 (pIC50) is 8.64. With `Cc1cc2cc(C(=O)N(Cc3ccc(C(F)(F)F)cn3)N(C)c3ncc(P(C)(C)=O)cn3)ccc2nc1N` [Example 296, 2-amino-N'-(5-(dimethylphosphoryl)pyrimidin-2-yl)-N',3-dimethyl-N-((5-(trifluoromethyl)pyridin-2-yl)methyl)quinoline-6-carbohydrazide] the figure was 8.89; with `CN(c1ncccn1)N(Cc1ccc(C(F)(F)F)cn1)C(=O)c1cc2c(cc1F)nc(N)c1cnn(C)c12` [Example 14, 4-amino-7-fluoro-N',1-dimethyl-N'-(pyrimidin-2-yl)-N-((5-(trifluoromethyl)pyridin-2-yl)methyl)-1H-pyrazolo[4,3-c]quinoline-8-carbohydrazide], 8.70; with `CN(c1ncccn1)N(Cc1ccc(C(F)(F)F)cn1)C(=O)c1ccc2nc(N)c(C(F)(F)F)cc2c1` [Example 327, 2-amino-N'-methyl-N'-(pyrimidin-2-yl)-3-(trifluoromethyl)-N-((5-(trifluoromethyl)pyridin-2-yl)methyl)quinoline-6-carbohydrazide], 8.08.

Regarding `Cc1cc2cc(C(=O)N(Cc3ccc(C(F)(F)F)cn3)N(C)c3cccnn3)ccc2nc1N` [Example 79, 2-amino-N',3-dimethyl-N'-(pyridazin-3-yl)-N-((5-(trifluoromethyl)pyridin-2-yl)methyl)quinoline-6-carbohydrazide], the negative-log IC50 (pIC50) was 8.01. On to `Cc1cc2nc(N)c3cnn(C)c3c2cc1C(=O)N1CC(C)CN1c1cccc(F)c1F` (stereo not drawn) [Example 363, (4-amino-1,7-dimethyl-1H-pyrazolo[4,3-c]quinolin-8-yl)(2-(2,3-difluorophenyl)-4-methylpyrazolidin-1-yl)methanone], for which the negative-log IC50 (pIC50) was 8.51. To `Cc1cc2cc(C(=O)N(Cc3ccc(C(F)(F)F)cn3)N(C)c3ncccc3Br)ccc2nc1N` [Example 106, 2-amino-N'-(3-bromopyridin-2-yl)-N',3-d imethyl-N-((5-(trifluoromethyl)pyridin-2-yl)methyl)quinoline-6-carbohydrazide] belongs 8.72. On to `Cn1ncc2c(N)nc3cc(C(F)(F)F)c(C(=O)N4CCCN4c4ccc(C(F)(F)F)cn4)cc3c21` [Example 505, (4-amino-1-methyl-7-trifluoromethyl-1H-pyrazolo[4,3-c]quinolin-8-yl)(2-(5-(trifluoromethyl)pyridin-2-yl)pyrazolidin-1-yl) methanone], for which the pIC50 was 8.52. To `Cc1cc2nc(N)c3cnn(C)c3c2cc1C(=O)N1CC(O)CN1c1ncccc1F` (stereo not drawn) [Example 356, (4-amino-1,7-dimethyl-1H-pyrazolo[4,3-c]quinolin-8-yl)(2-(3-fluoropyridin-2-yl)-4-hydroxypyrazolidin-1-yl)methanone] belongs 8.43; to `Cc1cc2cc(C(=O)N(Cc3ccc(-c4ccc(N(C)C5CC5)nc4)cn3)N(C)c3ncccn3)ccc2nc1N` [Compound 247, 2-amino-N-((6'-(cyclopropyl(methyl)amino)-[3,3'-bipyridine]-6-yl)methyl)-N',3-di methyl-N'-(pyrimidin-2-yl)quinoline-6-carbohydrazide], 8.11. With `Cc1cc2nc(N)c3cnn(C)c3c2cc1C(=O)N1CCCN1c1nccc2nccnc12` [Example 331, (4-amino-1,7-dimethyl-1H-pyrazolo[4,3-c]quinolin-8-yl)(2-(pyrido[3,4-b]pyrazin-5-yl)pyrazolidin-1-yl)methanone] the figure was 8.68; with `Cc1cc(N)nc2ccc(C(=O)N(Cc3ccc(C(F)(F)F)cn3)N(C)c3ncccn3)cc12` [Compound 30, 2-amino-N',4-dimethyl-N'-(pyrimidin-2-y 1)-N-((5-(trifluoromethyl)pyridin-2-yl)methyl)quinoline-6-carbohydrazide], 8.72; with `CN(c1ncccn1)N(Cc1ccc(C(F)(F)F)cn1)C(=O)c1ccc2nc(N)cc(C3CC3)c2c1` [Example 29, 2-amino-4-cyclopropyl-N'-methyl-N'-(pyrimidin-2-yl)-N-((5-(trifluoromethyl)pyridin-2-yl)methyl)quinoline-6-carbohydrazide], 8.80.

`CN(C(=O)c1cc2c(cc1F)nc(N)c1cnn(C)c12)N(C)c1ncc(C(F)(F)F)cc1F` [Example 37, 4-amino-7-fluoro-N'-(3-fluoro-5-(trifluor omethyl)pyridin-2-yl)-N,N',1-trimethyl-1 H-pyrazolo[4,3-c]quinoline-8-carbohydrazide]: the pIC50 was 8.46. With `CC(C)c1cc2nc(N)c3cnn(C)c3c2cc1C(=O)N1CCCN1c1ccc(C(F)(F)F)cn1` [Example 500, (4-amino-7-isopropyl-1-methyl-1H-pyraz olo[4,3-c]quinolin-8-yl)(2-(5-(trifluoromethyl)pyridin-2-yl)pyrazolidin-1-yl)metha none] the figure was 7.39; with `Cc1cc2cc(C(=O)N(Cc3cccc(C(F)(F)F)n3)N(C)c3ncccn3)ccc2nc1N` [Example 103, 2-amino-N',3-dimethyl-N'-(pyrimidin-2-yl)-N-((6-(trifluoromethyl)pyridin-2-yl)methyl)quinoline-6-carbohydrazide], 8.54.
